Counter-ions that a name gives are not always drawn.
target: T1, human GlyT1c transporter (Homo sapiens, UniProt P48067); assay: Radioligand binding assay using recombinant CHO cell membranes expressing human GlyT1; conditions: values given as upper bounds, read-out: radioligand binding Kiapp
T1 construct: expressed in transfected cells; host or cells: CHO cells (recombinant; membranes)
T1 sequence (P48067 1-706): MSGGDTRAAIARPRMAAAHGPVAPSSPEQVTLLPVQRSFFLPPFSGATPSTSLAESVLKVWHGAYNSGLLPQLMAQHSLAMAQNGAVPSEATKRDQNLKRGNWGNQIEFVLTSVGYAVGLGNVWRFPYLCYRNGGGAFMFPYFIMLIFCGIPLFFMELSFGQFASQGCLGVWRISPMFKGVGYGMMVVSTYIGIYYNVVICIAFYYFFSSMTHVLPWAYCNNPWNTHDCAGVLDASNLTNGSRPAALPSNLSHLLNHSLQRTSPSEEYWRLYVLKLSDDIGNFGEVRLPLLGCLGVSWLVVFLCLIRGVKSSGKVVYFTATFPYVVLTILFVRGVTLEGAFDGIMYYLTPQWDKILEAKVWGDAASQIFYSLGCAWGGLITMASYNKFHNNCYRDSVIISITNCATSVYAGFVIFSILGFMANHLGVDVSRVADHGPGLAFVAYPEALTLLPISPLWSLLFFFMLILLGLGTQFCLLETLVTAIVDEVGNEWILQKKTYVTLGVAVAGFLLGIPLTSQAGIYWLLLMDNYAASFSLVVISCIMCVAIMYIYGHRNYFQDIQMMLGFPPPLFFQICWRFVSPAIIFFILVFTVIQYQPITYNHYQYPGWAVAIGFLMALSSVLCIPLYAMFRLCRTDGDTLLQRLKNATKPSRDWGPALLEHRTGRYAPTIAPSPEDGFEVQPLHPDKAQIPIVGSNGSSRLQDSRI
Protocol: 2. Radioligand Binding Assays Using Recombinant CHO Cell Membranes Expressing Human GlyT1:
Radioligand binding to human GlyT1c transporter-expressing membranes was determined as described in Mezler et al., Molecular Pharmacology 74:1705-1715, 2008.

Row | Ki | SMILES
1 | ≤ 100 nM | CN[C@@H]1COc2ccc(CNS(=O)(=O)C3CCC3)cc2[C@@H]1Cc1ccccc1 (relative stereo) [Example 25, cis-Cyclobutanesulfonic acid (4-benzyl-3-methylamino-chroman-6-ylmethyl)-amide]
2 | ≤ 1000 nM | CCCS(=O)(=O)NCCOc1ccc2c(c1)[C@@H](Cc1ccccc1)[C@H](NC)C(C)(C)O2 (relative stereo) [Example 75, trans-Propane-1-sulfonic acid (2-(-4-benzyl-2,2-dimethyl-3-methylamino-chroman-6-yloxy)-ethyl]-amide]
3 | ≤ 1000 nM | CN[C@H]1[C@@H](Cc2ccccc2)c2cc(OCCNS(=O)(=O)CC3CC3)ccc2OC1(C)C (relative stereo) [Example 76, cis-N-[2-(-4-Benzyl-2,2-dimethyl-3-methylamino-chroman-6-yloxy)-ethyl]-C-cyclopropyl-methanesulfonamide]
4 | ≤ 1000 nM | CN[C@H]1[C@H](Cc2ccccc2)c2cc(OCCNS(=O)(=O)CC3CC3)ccc2OC1(C)C (relative stereo) [Example 77, trans-N-[2-(-4-Benzyl-2,2-dimethyl-3-methylamino-chroman-6-yloxy)-ethyl]-C-cyclopropyl-methanesulfonamide]
5 | ≤ 100 nM | CCS(=O)(=O)NCc1ccc2c(c1)C(Cc1ccccc1)C(NC)CO2 (single isomer, unassigned; isomer 2) [Example 79, cis-N-{[4-Benzyl-3-(methyl-amino)-3,4-dihydro-2H-chromen-6-yl]methy}ethane-sulfonamide. (Isomer 2)]
6 | ≤ 10 nM | Cn1cnc(S(=O)(=O)NCCOc2ccc3c(c2)C(Cc2ccccc2)C(N2CCC2)CO3)c1 (single isomer, unassigned; isomer 2) [Example 80, cis-1-Methyl-1H-imidazole-4-sulfonic acid [2-(3-azetidin-1-yl-4-benzyl-chroman-6-yloxy)-ethyl]-amide. (Isomer 2)]
7 | ≤ 1000 nM | CCS(=O)(=O)NCc1ccc2c(c1)C(Cc1ccccc1)C(N1CCC1)CO2 (centres unmarked) [Example 19, Ethanesulfonic acid (3-azetidin-1-yl-4-benzyl-chroman-6-ylmethyl)-amide; trifluoro-acetic acid salt]
8 | ≤ 100 nM | CCCS(=O)(=O)NCc1ccc2c(c1)C(Cc1ccccc1)C(N1CCC1)CO2 (centres unmarked) [Example 20, Propane-1-sulfonic acid (3-azetidin-1-yl-4-benzyl-chroman-6-ylmethyl)-amide; trifluoro-acetic acid salt]
9 | ≤ 100 nM | O=S(=O)(CC1CC1)NCc1ccc2c(c1)C(Cc1ccccc1)C(N1CCC1)CO2 (centres unmarked) [Example 21, N-(3-Azetidin-1-yl-4-benzyl-chroman-6-ylmethyl)-C-cyclopropyl-methane-sulfonamide; trifluoro-acetic acid salt]
10 | ≤ 1000 nM | CC1CCCN(S(=O)(=O)NCc2ccc3c(c2)C(Cc2ccccc2)C(N)CO3)C1 (centres unmarked) [Example 43, 3-Methyl-piperidine-1-sulfonic acid (3-amino-4-benzyl-chroman-6-ylmethyl)-amide 2,2,2-trifluoroacetate]
11 | ≤ 10000 nM | NC1COc2ccc(CNS(=O)(=O)N3CCOCC3)cc2C1Cc1ccccc1 (centres unmarked) [Example 44, Morpholine-4-sulfonic acid (3-amino-4-benzyl-chroman-6-ylmethyl)-amide 2,2,2-trifluoroacetate]
12 | ≤ 10000 nM | Cc1nn(C)cc1S(=O)(=O)NCc1ccc2c(c1)C(Cc1ccccc1)C(N)CO2 (centres unmarked) [Example 45, 1,3-Dimethyl-1H-pyrazole-4-sulfonic acid (3-amino-4-benzyl-chroman-6-ylmethyl)-amide 2,2,2-trifluoroacetate]
13 | ≤ 1000 nM | Cn1ccc(S(=O)(=O)NCc2ccc3c(c2)C(Cc2ccccc2)C(N)CO3)n1 (centres unmarked) [Example 46, 1-Methyl-1H-pyrazole-3-sulfonic acid (3-amino-4-benzyl-chroman-6-ylmethyl)-amide 2,2,2-trifluoroacetate]
14 | ≤ 100 nM | CCC(C)S(=O)(=O)NCc1ccc2c(c1)C(Cc1ccccc1)C(N)CO2 (centres unmarked) [Example 47, Butane-2-sulfonic acid (3-amino-4-benzyl-chroman-6-ylmethyl)-amide 2,2,2-trifluoroacetate]
15 | ≤ 1000 nM | CC(C)S(=O)(=O)NCc1ccc2c(c1)C(Cc1ccccc1)C(N)CO2 (centres unmarked) [Example 48, Propane-2-sulfonic acid (3-amino-4-benzyl-chroman-6-ylmethyl)-amide 2,2,2-trifluoroacetate]
16 | ≤ 1000 nM | NC1COc2ccc(CNS(=O)(=O)c3ccsc3)cc2C1Cc1ccccc1 (centres unmarked) [Example 49, Thiophene-3-sulfonic acid (3-amino-4-benzyl-chroman-6-ylmethyl)-amide 2,2,2-trifluoroacetate]
17 | ≤ 100 nM | Cc1cc(S(=O)(=O)NCc2ccc3c(c2)C(Cc2ccccc2)C(N)CO3)c(C)o1 (centres unmarked) [Example 50, 2,5-Dimethyl-furan-3-sulfonic acid (3-amino-4-benzyl-chroman-6-ylmethyl)-amide 2,2,2-trifluoroacetate]
18 | ≤ 10000 nM | CC(C)CS(=O)(=O)NCc1ccc2c(c1)C(Cc1ccccc1)C(N)CO2 (centres unmarked) [Example 51, 2-Methyl-propane-1-sulfonic acid (3-amino-4-benzyl-chroman-6-ylmethyl)-amide 2,2,2-trifluoroacetate]
19 | ≤ 1000 nM | Cc1ccc(S(=O)(=O)NCc2ccc3c(c2)C(Cc2ccccc2)C(N)CO3)o1 (centres unmarked) [Example 52, 5-Methyl-furan-2-sulfonic acid (3-amino-4-benzyl-chroman-6-ylmethyl)-amide 2,2,2-trifluoroacetate]
20 | ≤ 1000 nM | Cc1ccc(S(=O)(=O)NCc2ccc3c(c2)C(Cc2ccccc2)C(N)CO3)s1 (centres unmarked) [Example 53, 5-Methyl-thiophene-2-sulfonic acid (3-amino-4-benzyl-chroman-6-ylmethyl)-amide 2,2,2-trifluoroacetate]
21 | ≤ 100 nM | NC1COc2ccc(CNS(=O)(=O)c3ccoc3)cc2C1Cc1ccccc1 (centres unmarked) [Example 54, Furan-3-sulfonic acid (3-amino-4-benzyl-chroman-6-ylmethyl)-amide 2,2,2-trifluoroacetate]
22 | ≤ 10000 nM | Cc1cc(S(=O)(=O)NCc2ccc3c(c2)C(Cc2ccccc2)C(N)CO3)n(C)n1 (centres unmarked) [Example 55, 2,5-Dimethyl-2H-pyrazole-3-sulfonic acid (3-amino-4-benzyl-chroman-6-ylmethyl)-amide 2,2,2-trifluoroacetate]
23 | ≤ 100 nM | Cc1csc(S(=O)(=O)NCc2ccc3c(c2)C(Cc2ccccc2)C(N)CO3)c1 (centres unmarked) [Example 56, 4-Methyl-thiophene-2-sulfonic acid (3-amino-4-benzyl-chroman-6-ylmethyl)-amide 2,2,2-trifluoroacetate]
24 | ≤ 1000 nM | CCn1cc(S(=O)(=O)NCc2ccc3c(c2)C(Cc2ccccc2)C(N)CO3)cn1 (centres unmarked) [Example 57, 1-Ethyl-1H-pyrazole-4-sulfonic acid (3-amino-4-benzyl-chroman-6-ylmethyl)-amide 2,2,2-trifluoroacetate]
25 | ≤ 1000 nM | Cc1ncc(S(=O)(=O)NCc2ccc3c(c2)C(Cc2ccccc2)C(N)CO3)n1C (centres unmarked) [Example 58, 2,3-Dimethyl-3H-imidazole-4-sulfonic acid (3-amino-4-benzyl-chroman-6-ylmethyl)-amide 2,2,2-trifluoroacetate]

target: T2, MDR1 (P-gp) (Homo sapiens, UniProt P08183); assay: Efflux ratio by bidirectional transport in MDR1-MDCK cells; format: in vitro ADME; conditions: dog; MDR1-MDCK monolayers, 1 μM compound, HBSS pH 7.4, 1 h at 37 C; calculated from permeability coefficients
T2 construct: expressed in transfected cells; host or cells: Madin-Darby Canine Kidney Type II cells (MDR1-MDCK)
Protocol: 3. Determination of Efflux Ratio Using Madin-Darby Canine Kidney Type II Cells
Bidirectional transport experiments were performed on Madin-Darby Canine Kidney Type II cells over-expressing multidrug resistance protein 1 (MDR1-MDCK) to evaluate the compounds as potential P-gp substrates.
Compounds were added at 1 μM in HBSS-pH 7.4 (hanks balanced salt solution) to either the apical or basolateral side of MDR1-MDCK cell monolayers grown on Millicell 96-Cell polycarbonate filters. Samples were collected from both apical and basolateral sides at time 0 and after 1 h incubation at 37 C, compounds concentrations were measured by HPLC/MS/MS and permeability coefficients were then determined in both transport directions. The efflux ratio was subsequently calculated from the permeability coefficient.

T2 sequence (P08183 whole entry, species assumed): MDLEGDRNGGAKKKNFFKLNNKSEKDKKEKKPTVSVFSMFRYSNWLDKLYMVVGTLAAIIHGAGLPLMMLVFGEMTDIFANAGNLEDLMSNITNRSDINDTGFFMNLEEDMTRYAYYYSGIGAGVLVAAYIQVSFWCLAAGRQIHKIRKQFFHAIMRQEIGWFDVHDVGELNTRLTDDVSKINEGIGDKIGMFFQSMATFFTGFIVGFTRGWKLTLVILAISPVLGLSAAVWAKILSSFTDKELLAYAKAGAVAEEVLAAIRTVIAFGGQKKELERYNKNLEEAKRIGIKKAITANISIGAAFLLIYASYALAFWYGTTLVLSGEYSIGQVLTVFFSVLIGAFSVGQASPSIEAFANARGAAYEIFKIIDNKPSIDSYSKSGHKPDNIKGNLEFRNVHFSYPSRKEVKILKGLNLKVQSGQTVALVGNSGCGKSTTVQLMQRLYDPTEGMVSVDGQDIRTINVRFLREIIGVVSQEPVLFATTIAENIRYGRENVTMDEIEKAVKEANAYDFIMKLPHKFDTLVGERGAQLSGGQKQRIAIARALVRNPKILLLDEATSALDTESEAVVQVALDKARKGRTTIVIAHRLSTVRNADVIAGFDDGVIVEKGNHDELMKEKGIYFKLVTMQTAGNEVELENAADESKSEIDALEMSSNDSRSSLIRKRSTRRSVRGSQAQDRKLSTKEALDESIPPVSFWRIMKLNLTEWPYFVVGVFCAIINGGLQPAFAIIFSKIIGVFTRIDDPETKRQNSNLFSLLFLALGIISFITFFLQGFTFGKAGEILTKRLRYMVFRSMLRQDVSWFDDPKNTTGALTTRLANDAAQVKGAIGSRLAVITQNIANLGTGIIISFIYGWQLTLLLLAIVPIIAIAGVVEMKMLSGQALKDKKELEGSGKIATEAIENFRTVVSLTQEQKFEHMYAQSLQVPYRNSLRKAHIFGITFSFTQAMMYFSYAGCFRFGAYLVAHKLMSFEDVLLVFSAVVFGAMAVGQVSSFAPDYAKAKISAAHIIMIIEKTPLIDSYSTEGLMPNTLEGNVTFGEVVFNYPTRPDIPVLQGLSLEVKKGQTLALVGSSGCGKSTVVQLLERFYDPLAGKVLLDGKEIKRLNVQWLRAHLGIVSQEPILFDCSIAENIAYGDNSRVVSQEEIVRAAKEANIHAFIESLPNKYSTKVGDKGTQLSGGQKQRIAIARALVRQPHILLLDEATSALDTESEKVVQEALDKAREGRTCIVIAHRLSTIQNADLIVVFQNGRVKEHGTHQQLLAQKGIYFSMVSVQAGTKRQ

Row | efflux ratio at 1 h, 1 μM | SMILES
26 | 1.4 | CN[C@@H]1COc2ccc(CNS(=O)(=O)C3CCC3)cc2[C@@H]1Cc1ccccc1 (relative stereo) [Example 25, cis-Cyclobutanesulfonic acid (4-benzyl-3-methylamino-chroman-6-ylmethyl)-amide]

Source: patent US8853196B2, “Aminochromane, aminothiochromane and amino-1,2,3,4-tetrahydroquinoline derivatives, pharmaceutical compositions containing them, and their use in therapy” (AbbVie Deutschland GmbH & Co. KG, priority 2011, dated 2014)
